Test results reported in patent publication EP0583821A1, “Atriopeptins, guanylate cyclase activators, and phosphodiesterase inhibitors as treatment for glaucoma, hydrocephalus and cerebral edema (cranial fluid volume dysfunction)” (THE GENERAL HOSPITAL CORPORATION, priority 1987, dated 1988).

Biological target: T1, guanylate cyclase (Oryctolagus cuniculus, UniProt G1TXB5)
T1 sequence (G1TXB5 28-1056): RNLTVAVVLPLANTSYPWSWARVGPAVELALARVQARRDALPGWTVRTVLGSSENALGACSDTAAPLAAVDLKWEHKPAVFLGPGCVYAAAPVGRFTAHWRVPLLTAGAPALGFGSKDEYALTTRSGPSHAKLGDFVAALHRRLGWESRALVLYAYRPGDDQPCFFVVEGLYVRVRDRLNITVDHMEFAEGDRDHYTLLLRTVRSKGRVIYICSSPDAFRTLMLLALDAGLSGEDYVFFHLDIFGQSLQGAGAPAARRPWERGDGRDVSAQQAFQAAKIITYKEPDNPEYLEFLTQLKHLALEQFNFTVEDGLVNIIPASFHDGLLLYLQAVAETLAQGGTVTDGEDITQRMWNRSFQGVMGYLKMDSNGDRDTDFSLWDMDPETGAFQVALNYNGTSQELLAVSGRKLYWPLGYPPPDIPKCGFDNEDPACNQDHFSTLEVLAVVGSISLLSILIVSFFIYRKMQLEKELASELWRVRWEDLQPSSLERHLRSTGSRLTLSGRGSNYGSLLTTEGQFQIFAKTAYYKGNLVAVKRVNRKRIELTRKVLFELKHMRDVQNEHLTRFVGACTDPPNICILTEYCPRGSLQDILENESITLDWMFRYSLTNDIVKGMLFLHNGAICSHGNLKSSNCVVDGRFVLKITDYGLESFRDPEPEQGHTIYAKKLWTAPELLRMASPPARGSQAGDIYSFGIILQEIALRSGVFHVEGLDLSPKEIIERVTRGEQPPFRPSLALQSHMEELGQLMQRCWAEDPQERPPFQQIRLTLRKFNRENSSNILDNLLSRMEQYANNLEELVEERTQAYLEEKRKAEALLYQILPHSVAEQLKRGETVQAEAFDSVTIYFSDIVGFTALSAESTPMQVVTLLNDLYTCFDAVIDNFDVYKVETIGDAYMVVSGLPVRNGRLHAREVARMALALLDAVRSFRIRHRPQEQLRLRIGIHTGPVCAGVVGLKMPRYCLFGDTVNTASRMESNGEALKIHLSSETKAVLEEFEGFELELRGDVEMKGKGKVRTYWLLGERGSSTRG
Experiment: Atriopeptin-activated guanylate cyclase in ciliary process membrane (P1) fractions
Type: biochemical, rabbit
Design: tissues were homogenized (10 mg wet weight per milliliter); from tissue; host or cells: rabbit cerebral microvessels, choroid plexus, kidney, ciliary process, pia-arachnoid, cerebellum; 100,000 g P1 pellet
Details: mean ± range of duplicate determinations
Procedure: Ciliary process tips were obtained from male, 3-4 kg, New Zealand white rabbits, immediately following sacrifice with an overdose of ether, as described in Nathanson, Invest. Ophthal. Vis. Sci., 21:7981 (1982). The tissue was minced and homogenized (10 mg/ml) by hand in a glass-glass homogenizer in a buffer consisting of 50 mM Tris HCl, pH 8.0; 1mM EDTA, and 250mM sucrose. The homogenate was diluted 30-fold with buffer and centrifuged at 100,000 x g, to obtain a P1 fraction. The pellet was rehomogenized in the original volume and left on ice until use. P1 fractions were also prepared from wedges of rabbit kidney taken from the same animals. In some experiments, P1 fractions were prepared from iris and from ciliary body, as described in Nathanson, Proc. Natl. Acad. Sci. USA, 77:7420 (1980). Briefly, iris was removed from its attachment to the ciliary body, cleaned of adhering ciliary process tissue, washed, and homogenized as above. The ciliary muscle was cleaned of most remaining ciliary process tissue, freed from the underlying sclera by blunt and sharp dissection, and then washed and homogenized.
Atriopeptin-activated guanylate cyclase activity was measured as the rate of conversion of GTP to cyclic GMP. […]
For RIA, each tube contained (in 0.5ml), 50mM sodium acetate buffer (pH 6.2), 2mM EDTA, 1mg/ml bovine serum albumin, 0.1 ml of sample (or diluted sample), 8,000-15,000 cpm (about 5 fmole) of ¹²⁵I succinyl cyclic GMP tyrosine methyl ester, and antibody to bind 25-35% of the label. […] Activation constants (Ka) were determined from dose-response curves utilizing 12-14 data points (6-7 concentrations of hormone, in duplicate), each point representing the mean of triplicate RIA determinations.
Atriopeptin-activated guanylate cyclase activity was measured, as described in Example 5, in membranes from rabbit kidney and ciliary process prepared as in Example 4. […]

Ser-Leu-Arg-Arg-atriopeptin III (APIII) [rANP 1-28]
Vmax Stimulation (%) of Guanylate Cyclase Ciliary Process: 124 ± 5%

rANP 13-28 (DRIGAQSGLGCNSFRY; Atrial natriuretic peptide; UniProt P01161 135-150, looked up, fragment)
Vmax Stimulation (%) of Guanylate Cyclase Ciliary Process: 51 ± 5%
